# Target: T1, human cardiac sodium channel, hNav1.5 (Homo sapiens, UniProt Q14524)
# T1 construct: host or cells: HEK293
# Experiment: Late INa screening assay (automated whole cell patch clamp, PatchXpress; late current generated with 10 μM Tefluthrin)
# Format: cell-based
# Details: 1 μM test compound; HEK293 cells expressing hNav1.5
# Protocol: The late sodium current (Late INa) and peak sodium current (Peak INa) assays were performed on an automated electrophysiology platform, PatchXpress 7000A (MDS Analytical Technologies, Sunnyvale, Calif.), which uses the whole cell patch clamp technique to measure currents through the cell membrane of up to 16 cells at a time. The assay uses an HEK293 (human embryonic kidney) cell line heterologously expressing the wild-type human cardiac sodium channel, hNav1.5, purchased from Millipore (Billerica, Mass.). No beta subunits were coexpressed with the Na channel alpha subunit. Cells were maintained with standard tissue culture procedures and stable channel expression was maintained with 400 μg/ml Geneticin in the culture medium. Cells isolated for use on PatchXpress were incubated for 5 minutes in Versene 1X and then for 2 minutes in 0.0125% Trypsin-EDTA (both at 37° C.) to ensure that 80-90% of the cells are single and not part of a cell cluster. Experiments were carried out at 24-27° C.
# For both the Late INa and Peak INa assays, series resistance compensation was set to 50% and whole-cell compensation is performed automatically. Currents were low-pass filtered at 10 kHz and digitized at 31.25 kHz. Currents through open sodium channels were automatically recorded and stored in the DataXpress2 database (MDS Analytical Technologies, Sunnyvale, Calif.). Analysis is performed using DataXpress2 analysis software and data are compiled in Excel.
# Compound stocks were routinely made in glass vials to 10 mM in dimethyl sulfoxide (DMSO). In some cases, when compounds were not soluble in DMSO, they were made in 100% ethanol. Stocks were sonicated as necessary. The extracellular solution for screening Late INa was composed of: 140 mM NaCl, 4 mM KCl, 1.8 mM CaCl2, 0.75 mM MgCl2, and 5 mM HEPES with pH adjusted to 7.4 using NaOH. The extracellular solution for screening Peak INa was composed of: 20 mM NaCl, 120 mM N-methyl-D glucamine, 4 mM KCl, 1.8 mM CaCl2, 0.75 mM MgCl2, and 5 mM HEPES with pH adjusted to 7.4 using HCl. The intracellular solution used to perfuse the inside of the cells for both the Late INa and Peak INa assays contained: 120 mM CsF, 20 mM CsCl, 5 mM EGTA, 5 mM HEPES and pH adjusted to 7.4 with CsOH. […] The 0Na extracellular solution used at the end of each experiment for the Late INa and Peak INa assays to measure baseline current contained: 140 mM N-methyl-D-glucamine; 4 mM KCl; 1.8 mM CaCl2; 0.75 mM MgCl2; 5 mM HEPES and pH was adjusted to 7.4 with HCl.
# For the Late INa assay, sodium channels were activated every 10 seconds (0.1 Hz) by depolarizing the cell membrane to −20 mV for 250 milliseconds (ms) from a holding potential of −120 mV. In response to a −20 mV voltage step, typical Nav1.5 sodium currents activate rapidly to a peak negative current and then inactivate nearly completely within 3-4 ms.
# All compounds were tested to determine their activity in blocking the late sodium current. Late INa current was generated by adding 10 μM Tefluthrin (pyrethroid) to the extracellular solution while recording Na currents.
# T1 sequence (Q14524 whole entry): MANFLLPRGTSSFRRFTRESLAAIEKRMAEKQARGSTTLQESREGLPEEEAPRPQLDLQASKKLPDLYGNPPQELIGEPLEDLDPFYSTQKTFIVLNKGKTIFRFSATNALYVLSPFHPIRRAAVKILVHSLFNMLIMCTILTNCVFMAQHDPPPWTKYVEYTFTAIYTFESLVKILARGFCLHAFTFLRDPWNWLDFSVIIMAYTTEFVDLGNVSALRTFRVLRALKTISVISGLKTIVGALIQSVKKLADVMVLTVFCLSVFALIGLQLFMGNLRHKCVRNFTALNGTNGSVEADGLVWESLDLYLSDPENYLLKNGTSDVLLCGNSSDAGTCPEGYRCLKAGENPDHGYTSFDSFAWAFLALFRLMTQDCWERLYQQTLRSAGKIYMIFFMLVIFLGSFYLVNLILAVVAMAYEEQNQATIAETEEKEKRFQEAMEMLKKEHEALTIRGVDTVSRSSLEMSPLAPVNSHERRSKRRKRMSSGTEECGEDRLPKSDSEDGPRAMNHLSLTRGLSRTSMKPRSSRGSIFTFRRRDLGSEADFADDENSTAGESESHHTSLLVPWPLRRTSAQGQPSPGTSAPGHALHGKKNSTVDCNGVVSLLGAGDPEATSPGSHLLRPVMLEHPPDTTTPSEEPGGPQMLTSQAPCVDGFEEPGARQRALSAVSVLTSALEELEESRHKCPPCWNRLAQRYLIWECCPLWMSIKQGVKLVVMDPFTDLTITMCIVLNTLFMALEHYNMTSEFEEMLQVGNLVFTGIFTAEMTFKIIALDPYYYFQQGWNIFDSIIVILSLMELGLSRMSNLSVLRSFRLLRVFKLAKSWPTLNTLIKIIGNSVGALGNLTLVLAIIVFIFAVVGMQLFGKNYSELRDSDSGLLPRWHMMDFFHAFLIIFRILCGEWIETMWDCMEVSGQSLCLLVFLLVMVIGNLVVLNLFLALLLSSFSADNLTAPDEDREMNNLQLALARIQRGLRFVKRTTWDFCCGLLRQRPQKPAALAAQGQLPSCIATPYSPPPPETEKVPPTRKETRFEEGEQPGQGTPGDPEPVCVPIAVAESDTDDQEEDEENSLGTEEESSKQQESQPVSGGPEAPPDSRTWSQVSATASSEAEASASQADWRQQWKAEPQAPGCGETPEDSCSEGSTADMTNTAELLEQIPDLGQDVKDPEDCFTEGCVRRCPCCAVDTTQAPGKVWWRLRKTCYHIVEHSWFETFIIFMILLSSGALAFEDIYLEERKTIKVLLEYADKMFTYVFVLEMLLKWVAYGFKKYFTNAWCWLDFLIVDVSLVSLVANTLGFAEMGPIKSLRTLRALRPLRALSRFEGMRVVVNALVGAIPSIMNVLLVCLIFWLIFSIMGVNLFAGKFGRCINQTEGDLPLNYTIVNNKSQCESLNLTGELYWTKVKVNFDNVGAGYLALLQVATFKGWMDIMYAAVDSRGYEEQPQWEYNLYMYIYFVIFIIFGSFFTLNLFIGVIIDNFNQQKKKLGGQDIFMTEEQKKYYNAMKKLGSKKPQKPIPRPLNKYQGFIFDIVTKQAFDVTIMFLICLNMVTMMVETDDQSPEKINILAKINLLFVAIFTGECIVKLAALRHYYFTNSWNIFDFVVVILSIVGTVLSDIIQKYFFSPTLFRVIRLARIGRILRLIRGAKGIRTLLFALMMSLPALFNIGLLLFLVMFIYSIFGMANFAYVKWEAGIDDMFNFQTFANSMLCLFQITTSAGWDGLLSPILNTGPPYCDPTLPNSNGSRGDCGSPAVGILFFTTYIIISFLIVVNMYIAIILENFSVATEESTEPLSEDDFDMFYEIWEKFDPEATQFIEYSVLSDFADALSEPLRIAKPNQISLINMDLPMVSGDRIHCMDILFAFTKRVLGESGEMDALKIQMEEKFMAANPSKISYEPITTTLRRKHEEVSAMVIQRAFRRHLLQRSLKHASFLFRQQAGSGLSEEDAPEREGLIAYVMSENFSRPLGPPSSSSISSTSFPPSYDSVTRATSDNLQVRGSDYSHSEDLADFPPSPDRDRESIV
row,SMILES,Late Ina % blk (1 μM test cmpd)
1,"Cc1nc2ccccc2c(C)c1C(=O)OCc1ccccc1Br [PT-028, 2-bromobenzyl 2,4-dimethylquinoline-3-carboxylate]",39.2%

# Same assay, conditions: 10 μM test compound; HEK293 cells expressing hNav1.5; read-out: Late Ina % blk (10 μM test cmpd)
row,SMILES,inhibition at 10 µM
1,"Cc1nc2ccccc2c(-c2ccccc2)c1C(=O)OCc1ccccc1 [PT-001, benzyl 2-methyl-4-phenylquinoline-3-carboxylate]",78.3%
2,"Cc1nc2ccc(Cl)cc2c(-c2ccccc2)c1C(=O)OC(C)(C)C [PT-002, Tert-butyl 6-chloro-2-methyl-4-phenylquinoline-3-carboxylate]",61.1%
3,"Cc1nc2ccc(Cl)cc2c(-c2ccccc2)c1C(=O)NCc1ccc(F)cc1 [PT-003, 6-chloro-N-(4-fluorobenzyl)-2-methyl-4-phenylquinoline-3-carboxamide]",26.3%
4,"N#Cc1c(N)nc2ccc(Cl)cc2c1-c1ccccc1 [PT-004, 2-amino-6-chloro-4-phenylquinoline-3-carbonitrile]",15.2%
5,"CCOC(=O)c1c(CCl)nc2ccc(Cl)cc2c1-c1ccccc1 [PT-006, ethyl 6-chloro-2-(chloromethyl)-4-phenylquinoline-3-carboxylate]",48.8%
6,"CCOC(=O)c1c(CN2C(=O)c3ccccc3C2=O)nc2ccc(Cl)cc2c1-c1ccccc1 [PT-007, ethyl 6-chloro-2-[(1,3-dioxo-1,3-dihydro-2H-isoindol-2-yl)methyl]-4-phenylquinoline-3-carboxylate]",24%
7,"CCOC(=O)c1c(Cn2ccnc2)nc2ccc(Cl)cc2c1-c1ccccc1 [PT-008, ethyl 6-chloro-2-(1H-imidazol-1-ylmethyl)-4-phenylquinoline-3-carboxylate]",41.1%
8,"CCOC(=O)c1c(CN2C(=O)CCC2=O)nc2ccc(Cl)cc2c1-c1ccccc1 [PT-009, ethyl 6-chloro-2-[(2,5-dioxopyrrolidin-1-yl)methyl]-4-phenylquinoline-3-carboxylate]",53.3%
9,"CCOC(=O)c1c(COc2ccc(Cl)cc2OC)nc2ccc(Cl)cc2c1-c1ccccc1 [PT-011, ethyl 6-chloro-2-[(4-chloro-2-methoxyphenoxy)methyl]-4-phenylquinoline-3-carboxylate]",18.1%
10,"Cc1nc2ccc(Cl)cc2c(-c2ccccc2)c1C(=O)N1CCCCC1 [PT-013, (6-chloro-2-methyl-4-phenylquinolin-3-yl)(piperidin-1-yl)methanone]",30.2%
11,"Cc1nc2ccc(Cl)cc2c(-c2ccccc2)c1C(=O)O[C@@H](C)c1ccccc1 [PT-014, (1S)-1-phenylethyl 6-chloro-2-methyl-4-phenylquinoline-3-carboxylate]",36.1%
12,"Cc1nc2ccc(Cl)cc2c(-c2ccccc2)c1C(=O)O[C@H](C)c1ccccc1 [PT-015, (1R)-1-phenylethyl 6-chloro-2-methyl-4-phenylquinoline-3-carboxylate]",37%
13,"Cc1nc2ccc(Cl)cc2c(-c2ccccc2)c1C(=O)OCc1ccc(Cn2cccn2)cc1 [PT-018, 4-(1H-pyrazol-1-ylmethyl)benzyl 6-chloro-2-methyl-4-phenylquinoline-3-carboxylate]",54.5%
14,"Cc1nc2ccc(Cl)cc2c(-c2ccccc2Cl)c1C(=O)OC(C)(C)C [PT-020, Tert-butyl 6-chloro-4-(2-chlorophenyl)-2-methylquinoline-3-carboxylate]",32.9%
15,"CCOC(=O)c1c(C)nc2ccc(Cl)cc2c1-c1ccccc1Cl [PT-021, ethyl 6-chloro-4-(2-chlorophenyl)-2-methylquinoline-3-carboxylate]",70.2%
16,"Cc1nc2ccc(Cl)cc2c(-c2ccccc2F)c1C(=O)OC(C)(C)C [PT-022, Tert-butyl 6-chloro-4-(2-fluorophenyl)-2-methylquinoline-3-carboxylate]",46.9%
17,"Cc1nc2ccc(Cl)cc2c(-c2ccccc2)c1C(C)O (stereo not shown) [PT-023, 1-(6-chloro-2-methyl-4-phenylquinolin-3-yl)ethanol]",29.8%
18,"CCOC(=O)c1c(CN(C)C)nc2ccc(Cl)cc2c1-c1ccccc1 [PT-024, ethyl 6-chloro-2-[(dimethylamino)methyl]-4-phenylquinoline-3-carboxylate]",57.8%
19,"COC(=O)c1c(C)nc2ccccc2c1C [PT-025, methyl 2,4-dimethylquinoline-3-carboxylate]",26.6%
20,"CCOCc1nc2ccccc2c(C)c1C(=O)OCC [PT-026, ethyl 2-(ethoxymethyl)-4-methylquinoline-3-carboxylate]",23.4%
21,"Cc1nc2ccc(Cl)cc2c(-c2ccccc2Cl)c1C(=O)OCc1ccccc1Br [PT-027, 2-bromobenzyl 6-chloro-4-(2-chlorophenyl)-2-methylquinoline-3-carboxylate]",45.3%
22,"Cc1nc2ccccc2c(C)c1C(=O)OCc1ccccc1Br [PT-028, 2-bromobenzyl 2,4-dimethylquinoline-3-carboxylate]",82.4%
23,"CCOC(=O)c1c(C)nc2ccc(Cl)cc2c1-c1ccccc1 [PT-029, ethyl 6-chloro-2-methyl-4-phenylquinoline-3-carboxylate]",70.2%
24,"CCOC(=O)c1c(C)nc2ccc(Cl)cc2c1-c1ccccc1F [PT-030, ethyl 6-chloro-4-(2-fluorophenyl)-2-methylquinoline-3-carboxylate]",55.4%
25,"Cc1nc2ccccc2c(C)c1-c1nnc(C(C)(C)c2ccc(Cl)cc2)o1 [PT-031, 3-{5-[2-(4-chlorophenyl)propan-2-yl]-1,3,4-oxadiazol-2-yl}-2,4-dimethylquinoline]",64.4%
26,"Cc1nc2ccc(Cl)cc2c(C)c1C(=O)OCc1ccccc1Br [PT-032, 2-bromobenzyl 6-chloro-2,4-dimethylquinoline-3-carboxylate]",82.4%

# Target: T2, hERG potassium channel (Homo sapiens, UniProt Q12809)
# T2 construct: expressed in transfected cells; host or cells: CHO (Chinese Hamster Ovary)
# T2 sequence (Q12809 whole entry): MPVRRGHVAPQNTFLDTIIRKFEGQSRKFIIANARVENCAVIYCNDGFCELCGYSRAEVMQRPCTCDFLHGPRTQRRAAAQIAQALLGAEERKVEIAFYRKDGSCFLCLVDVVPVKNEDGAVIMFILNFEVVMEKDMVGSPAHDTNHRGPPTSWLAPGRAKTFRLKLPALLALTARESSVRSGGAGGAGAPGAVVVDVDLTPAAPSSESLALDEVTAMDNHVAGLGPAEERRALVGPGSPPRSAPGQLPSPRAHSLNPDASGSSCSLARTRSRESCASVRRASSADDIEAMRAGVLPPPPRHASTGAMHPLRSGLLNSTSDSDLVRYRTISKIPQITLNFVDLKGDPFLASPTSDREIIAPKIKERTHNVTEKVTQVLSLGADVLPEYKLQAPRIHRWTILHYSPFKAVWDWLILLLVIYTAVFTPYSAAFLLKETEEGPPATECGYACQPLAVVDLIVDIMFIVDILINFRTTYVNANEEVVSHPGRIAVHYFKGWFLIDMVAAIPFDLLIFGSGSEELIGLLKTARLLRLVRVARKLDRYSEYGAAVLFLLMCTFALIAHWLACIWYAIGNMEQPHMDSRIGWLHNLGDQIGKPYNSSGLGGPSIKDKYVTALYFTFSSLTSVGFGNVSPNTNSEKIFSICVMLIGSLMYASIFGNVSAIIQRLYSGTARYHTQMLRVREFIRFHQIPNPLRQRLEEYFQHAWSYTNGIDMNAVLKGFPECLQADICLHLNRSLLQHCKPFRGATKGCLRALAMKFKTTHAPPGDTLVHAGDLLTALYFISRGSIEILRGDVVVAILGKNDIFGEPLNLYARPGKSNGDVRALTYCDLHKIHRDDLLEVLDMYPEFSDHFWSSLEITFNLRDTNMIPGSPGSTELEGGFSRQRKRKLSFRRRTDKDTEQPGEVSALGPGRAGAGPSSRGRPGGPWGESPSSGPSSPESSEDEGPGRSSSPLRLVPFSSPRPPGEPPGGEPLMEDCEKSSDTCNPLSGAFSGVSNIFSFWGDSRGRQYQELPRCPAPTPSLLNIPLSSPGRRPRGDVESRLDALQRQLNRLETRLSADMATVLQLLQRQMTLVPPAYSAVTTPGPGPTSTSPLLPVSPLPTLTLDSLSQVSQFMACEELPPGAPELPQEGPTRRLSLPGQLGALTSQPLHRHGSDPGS
# Experiment: hERG screening assay (PatchXpress automated patch clamp, CHO cell line)
# Format: cell-based
# Details: 1 μm test compound; CHO cells
# Protocol: Compounds were screened to test their activity in blocking the hERG potassium channel. The hERG channel is heterologously expressed in a CHO (Chinese Hamster Ovary) cell line. Cells were maintained with standard tissue culture procedures and stable channel expression is maintained with 500 μg/ml G418 in the culture medium. Cells were harvested for testing on the PatchXpress automated patch clamp with Accumax (Innovative Cell Technologies, San Diego, Calif.) to isolate single cells.
# The following solutions were used for electrophysiological recordings. The external solution contains: 2 mM CaCl2; 2 mM MgCl2; 4 mM KCl; 150 mM NaCl; 10 mM Glucose; 10 mM HEPES (pH 7.4 with 1M NaOH, osmolarity). The internal solution contained: 140 mM KCl, 10 mM MgCl2, 6 mM EGTA, 5 mM HEPES, 5 mM ATP (pH adjusted to 7.25 with KOH).
# hERG channels are activated when the voltage is stepped to +20 mV from the −80 mV holding potential. During a 5 second step at +20 mV, the channels activate and then largely inactivate, so the currents are relatively small. Upon returning to −50 mV from +20 mV, hERG currents transiently become much larger as inactivation is rapidly removed and then the channel closes. The first step to −50 mV for 300 ms is used as a baseline for measuring the peak amplitude during the step to −50 mV after channel activation. The peak current at −50 mV was measured both under control conditions and after addition of compound.
# All compounds were prepared as 10 mM DMSO stocks in glass vials. Stock solutions were mixed by vigorous vortexing and sonication for about 2 minutes at room temperature. For testing, compounds were diluted in glass vials using an intermediate dilution step in pure DMSO and then further diluted to working concentrations in external solution. Dilutions were prepared no longer than 20 minutes before use.
# After achieving the whole-cell configuration, cells were monitored for 90 seconds to assess stability and washed with external solution for 66 seconds. The voltage protocol described above was then applied to the cells every 12 seconds and throughout the whole procedure. Only cells with stable recording parameters and meeting specified health criteria were allowed to enter the compound addition procedure.
# External solution containing 0.1% DMSO (vehicle) was applied to the cells first to establish the control peak current amplitude. After allowing the current to stabilize for 3 to 5 minutes, 1 μM and then 10 μM test compounds was applied. Each compound concentration was added 4 times and cells were kept in test solution until the effect of the compound reaches steady state or for a maximum of 12 minutes. After addition of test compound, a positive control (1 μM Cisapride) was added and must block >95% of the current for the experiment to be considered valid. Washout in the external solution compartment was performed until the recovery of the current reaches steady state. Data were analyzed using DataXpress, Clampfit (Molecular Devices, Inc., Sunnyvale) and Origin 7 (Originlab Corp.)
row,SMILES,hERG Patch Clamp hERG % blk (1 μm test cmpd)
1,"CCOC(=O)c1c(Cn2ccnc2)nc2ccc(Cl)cc2c1-c1ccccc1 [PT-008, ethyl 6-chloro-2-(1H-imidazol-1-ylmethyl)-4-phenylquinoline-3-carboxylate]",43.0%
2,"CCOC(=O)c1c(CN2C(=O)CCC2=O)nc2ccc(Cl)cc2c1-c1ccccc1 [PT-009, ethyl 6-chloro-2-[(2,5-dioxopyrrolidin-1-yl)methyl]-4-phenylquinoline-3-carboxylate]",24.0%

# Same assay, conditions: 10 μm test compound; CHO cells
row,SMILES,hERG Patch Clamp hERG % blk (10 μm test cmpd)
1,"CCOC(=O)c1c(Cn2ccnc2)nc2ccc(Cl)cc2c1-c1ccccc1 [PT-008, ethyl 6-chloro-2-(1H-imidazol-1-ylmethyl)-4-phenylquinoline-3-carboxylate]",94.5%
2,"CCOC(=O)c1c(CN2C(=O)CCC2=O)nc2ccc(Cl)cc2c1-c1ccccc1 [PT-009, ethyl 6-chloro-2-[(2,5-dioxopyrrolidin-1-yl)methyl]-4-phenylquinoline-3-carboxylate]",65.5%
